One compound from PMC8618058, “A Phenylfurocoumarin Derivative Reverses ABCG2-Mediated Multidrug Resistance In Vitro and In Vivo” (International Journal of Molecular Sciences, 2021) can be followed below.

The target in the experiment is T1, ABCG2 (Homo sapiens, UniProt Q9UNQ0).
T1 construct: total membranes of ABCG2-expressing High Five insect cells
T1 sequence (Q9UNQ0 1-655): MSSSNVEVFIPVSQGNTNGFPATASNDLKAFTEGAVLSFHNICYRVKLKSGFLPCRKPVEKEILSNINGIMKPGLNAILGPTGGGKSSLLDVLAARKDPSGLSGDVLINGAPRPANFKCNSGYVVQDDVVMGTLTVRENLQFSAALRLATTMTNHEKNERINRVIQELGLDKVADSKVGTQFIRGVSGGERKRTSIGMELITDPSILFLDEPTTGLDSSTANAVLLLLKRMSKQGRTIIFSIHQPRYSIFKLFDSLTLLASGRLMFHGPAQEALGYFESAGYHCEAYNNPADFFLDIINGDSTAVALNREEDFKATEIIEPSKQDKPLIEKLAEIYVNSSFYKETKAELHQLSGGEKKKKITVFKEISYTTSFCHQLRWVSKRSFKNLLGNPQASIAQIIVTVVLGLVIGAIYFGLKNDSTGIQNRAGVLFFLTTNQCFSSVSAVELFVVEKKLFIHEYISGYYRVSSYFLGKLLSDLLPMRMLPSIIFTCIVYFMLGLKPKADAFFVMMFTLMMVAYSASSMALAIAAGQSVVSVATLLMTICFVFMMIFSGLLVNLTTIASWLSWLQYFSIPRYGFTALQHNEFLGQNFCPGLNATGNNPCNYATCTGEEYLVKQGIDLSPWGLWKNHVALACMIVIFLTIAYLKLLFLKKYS
Put plainly: stimulation of vanadate-sensitive ATPase activity in ABCG2-expressing insect cell membranes; also PhA efflux inhibition in HCT-116/BCRP cells. It is filed as biochemical.

The compound `COc1ccc(-c2c3occc3c(OC[C@H]3OC3(C)C)c3ccc(=O)oc23)cc1OC` [PFC, (R)-9-(3,4-dimethoxyphenyl)-4-((3,3-dimethyloxiran-2-yl)methoxy)-7H-furo [3,2-g]chromen-7-one] came in with an EC50 of 3.8 ± 0.64 nM.
